Test results reported in patent US8288371B2, “Ortho pyrrolidine, benzyl-substituted heterocycle CCR1 antagonists for autoimmune diseases and inflammation” (Pharmacopeia, LLC, priority 2007, dated 2012).

biological target: T1, human CCR1 (Homo sapiens, UniProt P32246); experiment: CCR1 binding protocol (SPA, [125I]-MIP-1α displacement); conditions: cell membrane expressing human CCR1, 0.1 nM [125I]-MIP-1α, 4 hours at ambient temperature; read-out: Relative potency (IC50)
T1 sequence (P32246 1-355): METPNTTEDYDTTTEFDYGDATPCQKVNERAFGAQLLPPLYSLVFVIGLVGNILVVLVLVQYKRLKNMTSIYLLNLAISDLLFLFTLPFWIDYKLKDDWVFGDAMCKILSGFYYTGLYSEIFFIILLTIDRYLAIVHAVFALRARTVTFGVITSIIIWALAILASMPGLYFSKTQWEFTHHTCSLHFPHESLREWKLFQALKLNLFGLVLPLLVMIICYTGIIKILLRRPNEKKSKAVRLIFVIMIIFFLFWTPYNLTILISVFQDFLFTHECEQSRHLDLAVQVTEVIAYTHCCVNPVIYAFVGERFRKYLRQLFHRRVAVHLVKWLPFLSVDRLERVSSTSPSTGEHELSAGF
Outline: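 Displacement of 0.1 nM [125I]-MIP-1α (final) from membranes expressing human CCR1 was measured by scintillation proximity after 4 h at ambient temperature. Conditions: pH 7.4 Tris buffer with 0.1% BSA and MnCl, and 0.5 μg membrane per well. Compounds were tested as a 10-step ½-log series from a 10 mM DMSO stock to derive IC50.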

IC50 [nM]	SMILES
50 to 500	Cc1nc(C(F)(F)F)ccc1NC(=O)N1CCC[C@@H]1c1ncnn1Cc1ccc(Cl)cc1 [Compound 548]
< 50	Cc1nc(C(F)(F)F)ccc1NC(=O)N1CCC[C@@H]1c1nnc(Cl)n1Cc1ccc(Cl)cc1 [Compound 549]
500 to 5000	Cc1nnc([C@H]2CCCN2C(=O)Nc2ccc(-c3ncccn3)cc2)n1Cc1ccc(Cl)cc1 [Compound 550]
500 to 5000	Cc1nnc([C@H]2CCCN2C(=O)Nc2ccc(OC3CCOCC3)nc2)n1Cc1ccc(Cl)cc1 [Compound 551]
< 50	O=C(Nc1ccc(Cl)cc1F)N1CCC[C@@H]1c1nnc(Cl)n1Cc1ccc(Cl)cc1 [Compound 552]
500 to 5000	Cc1nc(C(F)(F)F)ccc1NC(=O)N1CCC[C@@H]1c1nnc(C)n1Cc1cccc(Br)c1 [Compound 553]
50 to 500	Cc1noc(C)c1NC(=O)N1CCC[C@@H]1c1nnc(C)n1Cc1ccc(Br)cc1 [Compound 554]
500 to 5000	Cc1noc(C)c1Nc1c(N2CCC[C@@H]2c2nnc(C)n2Cc2ccc(Cl)cc2)c(=O)c1=O [Compound 555]
< 50	O=C(Nc1ccc(Cl)cc1F)N1CCC[C@@H]1c1nncn1Cc1ccc(Cl)cc1 [Compound 556]
< 50	Cc1nc(C(F)(F)F)ccc1NC(=O)N1CCC[C@@H]1c1nncn1Cc1ccc(Cl)cc1 [Compound 557]
500 to 5000	Cc1nnc([C@H]2C[C@@H](O)CN2C(=O)Nc2ccc(OC3CCOCC3)nc2)n1Cc1ccc(Cl)cc1 [Compound 558]
< 50	Cc1cc(C)c(S(=O)(=O)N(C)C)cc1NC(=O)N1CCC[C@@H]1c1nnc(C)n1Cc1ccc(Br)cc1 [Compound 559]
< 50	CC[C@H](NC(=O)N1CCC[C@@H]1c1nnc(C)n1Cc1ccc(F)cc1)c1ccc(C(F)(F)F)nc1 [Compound 560]
< 50	CC[C@H](NC(=O)N1CCC[C@@H]1c1nnc(C)n1Cc1ccc(Br)cc1)c1ccc(C(F)(F)F)nc1 [Compound 561]
50 to 500	CC[C@H](Nc1c(N2CCC[C@@H]2c2nnc(C)n2Cc2ccc(Cl)cc2)c(=O)c1=O)c1ccc(C(F)(F)F)nc1 [Compound 562]
< 50	Cc1nc(C(F)(F)F)ccc1NC(=O)N1CC2CC2[C@@H]1c1nnc(C)n1Cc1ccc(Cl)cc1 (some centres unmarked) [Compound 563]
50 to 500	Cc1noc(C)c1NC(=O)N1CC2CC2[C@@H]1c1nnc(C)n1Cc1ccc(Cl)cc1 (some centres unmarked) [Compound 564]
50 to 500	Cc1nnc([C@H]2C3CC3CN2C(=O)Nc2ccc(Cl)cc2F)n1Cc1ccc(Cl)cc1 (some centres unmarked) [Compound 565]
50 to 500	Cc1nc(C(F)(F)F)ccc1NC(=O)N1CCC[C@@H]1c1ncc(C)n1Cc1ccc(Cl)cc1 [Compound 566]
50 to 500	Cc1cnc([C@H]2CCCN2C(=O)Nc2ccc(Cl)cc2F)n1Cc1ccc(Cl)cc1 [Compound 567]
50 to 500	Cc1nnc([C@H]2CCCN2C(=O)Nc2ccc(Cl)c(C(F)(F)F)c2)n1Cc1ccc(Br)cc1 [Compound 568]
50 to 500	Cc1nnc([C@H]2CC(F)CN2C(=O)NC(c2ccccc2)c2ccccc2)n1Cc1ccc(Cl)cc1 (some centres unmarked) [Compound 569]
< 50	Cc1nnc([C@H]2CC(F)CN2C(=O)NCc2ccc(Cl)c(Cl)c2)n1Cc1ccc(Cl)cc1 (some centres unmarked) [Compound 570]
50 to 500	Cc1nnc([C@H]2CC(F)CN2C(=O)Nc2ccc(Cl)cc2F)n1Cc1ccc(Cl)cc1 (some centres unmarked) [Compound 571]
50 to 500	Cc1nnc([C@H]2CC(F)CN2C(=O)Nc2ccc(Cl)c(C(F)(F)F)c2)n1Cc1ccc(Cl)cc1 (some centres unmarked) [Compound 572]
< 50	Cc1noc(-c2ccccc2)c1NC(=O)N1CC(F)C[C@@H]1c1nnc(C)n1Cc1ccc(Cl)cc1 (some centres unmarked) [Compound 573]
< 50	Cc1nnc([C@H]2CC(F)CN2C(=O)N[C@H]2CCOc3cc(C(F)(F)F)ccc32)n1Cc1ccc(Cl)cc1 (some centres unmarked) [Compound 574]
< 50	Cc1noc(C)c1NC(=O)N1CC(F)C[C@@H]1c1nnc(C)n1Cc1ccc(Cl)cc1 (some centres unmarked) [Compound 575]
50 to 500	Cc1nnc([C@H]2CC(F)CN2C(=O)NC2C[C@@H]2c2ccccc2)n1Cc1ccc(Cl)cc1 (some centres unmarked) [Compound 576]
